Assays:
BAG3 = BAG3 mRNA (PCR) and protein (immunofluorescence) levels in primary B-CLL cells; format: cell-based, human
Protocol: FIG. 1—Expression of BAG3 mRNA and protein in primary cells from leukemia patients. Leukemic cells were isolated from B-CLL patients' peripheral blood specimens by centrifugation through Ficoll-Hypaque (13) and cultured for 24 hours in RPMI 1640 medium supplemented with 10% fetal calf serum (10% FCS-RPMI), without or with fludarabine phosphate. A panel: cell mRNA was the extracted and BAG3 expression was verified by PCR (GAPDH expression is shown for comparative purpose); B panel: cells were permeabilised and analysed by indirect immunofluorescence with the polyclonal antibody AC-BAG3-1. A=control rabbit Ig; b=cells incubated with control medium and analysed with anti-BAG3; c=cells incubated with fludarabine and analysed with anti-BAG3.
FIG. 2—Downmodulation of BAG3 protein levels by anti-BAG3 antisense oligodeoxynucleotides. Leukemic cells were isolated from B-CLL patients' peripheral blood specimens by centrifugation through Ficoll-Hypaque and cultured for 20 hours without (b) or with BAG3 antisense (b+α) or control nonsense (b+ν) phosphorothioate oligodeoxynucleotides (5 microM) described in the text. Then cells were permeabilised and analysed by indirect immunofluorescence with the polyclonal antibody AC-BAG3-1. a=control rabbit Ig.

[1] = test system: cells of the human osteosarcoma line SAOS; assay: Apoptosis in SAOS cells, cell permeabilization and PI staining; format: cell-based; settings: 72 h; for % of apoptosis, incubation Etoposide (5 microM) / % of apoptosis, incubation Topotecan (40 ng/ml): without or with oligo 5 microM
Protocol: Cells of the SAOS line were incubated for 72 h in 10% FCS-RPMI without or with chemotherapeutic compounds (etoposide or topotecan) and/or the BAG3 antisense or control nonsense phosphorothioate oligodeoxynucleotides (5 microM) described in the text. Then cell apoptosis was analysed by cell permeabilization and PI staining according to ref.11.

BAG3 protein = biological target: T1, BAG3 protein (Homo sapiens, UniProt O95817); assay: BAG3 protein in ALL cells, Western blot and intracellular immunofluorescence; format: cell-based; settings: oligo 5 microM, 24 hr
T1 construct: endogenous in cells; host or cells: primary leukemic cells from patients' peripheral blood (B-CLL, acute leukemia)
Protocol: FIG. 11 Expression of BAG3 protein in ALL cells and its downmodulation by BAG3-specific antisense oligonucleotides. A—ALL cells (1×10^6/ml) were cultured in 10% FCS-RPMI without or with control nonsense ([…], SEQ ID NO 12, nonsense 1) or BAG3-specific antisense ([…], SEQ ID NO 9, antisense 1) oligonucleotides (5 microM) for 24 hr. Then cell lysates were obtained and analyzed in Western blot with anti-BAG3 (AC-BAG3-1; analogous results were obtained With AC-BAG3-2) or anti-tubulin antibodies. B—ALL cells (1×10^6/ml) were cultured in 10% FCS-RPMI without or with BAG3-specific antisense ([…], SEQ ID NO 9, antisense 1) (a) or control nonsense ([…], SEQ ID NO 12, nonsense 1) (b) oligonucleotides (5 microM) for 24 hr. Then the cells were analyzed by intracellular immunofluorescence with the anti-BAG3 polyclonal antibody. Negative controls with a control rabbit antibody preparation are shown on the left in a and b.

T1 sequence (O95817 whole entry): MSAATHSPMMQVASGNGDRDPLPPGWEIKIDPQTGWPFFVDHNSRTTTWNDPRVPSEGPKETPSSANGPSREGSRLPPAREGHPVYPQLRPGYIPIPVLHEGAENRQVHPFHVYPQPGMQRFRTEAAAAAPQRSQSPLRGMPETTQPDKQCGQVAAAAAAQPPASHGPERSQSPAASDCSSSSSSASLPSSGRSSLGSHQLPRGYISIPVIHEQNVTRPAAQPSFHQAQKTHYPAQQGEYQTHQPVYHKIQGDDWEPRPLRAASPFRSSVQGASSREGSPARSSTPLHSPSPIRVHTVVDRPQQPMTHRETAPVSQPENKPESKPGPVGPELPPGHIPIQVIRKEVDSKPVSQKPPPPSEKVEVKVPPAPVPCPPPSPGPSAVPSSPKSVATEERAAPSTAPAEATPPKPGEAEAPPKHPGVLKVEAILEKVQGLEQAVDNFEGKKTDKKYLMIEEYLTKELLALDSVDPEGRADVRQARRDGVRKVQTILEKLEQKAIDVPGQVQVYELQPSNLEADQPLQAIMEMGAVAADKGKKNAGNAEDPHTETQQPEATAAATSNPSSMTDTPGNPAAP

Compound | % of apoptosis, incubation Etoposide (5 microM) [1] | % of apoptosis, incubation Topotecan (40 ng/ml) [1] | other results
Nc1nc(F)nc2c1ncn2[C@@H]1O[C@H](COP(=O)(O)O)[C@@H](O)[C@@H]1O [fludarabine, fludarabine phosphate] |  |  | BAG3 mRNA levels (BAG3; 24 hours, PCR): enhanced; BAG3 protein levels (BAG3; immunofluorescence, 11 of 13 BAG3-positive specimens (18 examined)): upregulated
COc1cc([C@@H]2c3cc4c(cc3[C@@H](O[C@@H]3O[C@@H]5CO[C@@H](C)O[C@H]5[C@H](O)[C@H]3O)[C@H]3COC(=O)[C@H]23)OCO4)cc(OC)c1O [Etoposide, etoposide] | 38.32% |  | 
control nonsense: control nonsense phosphorothioate oligodeoxynucleotides described in the text; which of nonsense 1-3 is not stated (DNA TTATATTCTATTATATTTATGAACTCC; DNA, all phosphorothioate, methylation of C not given here; listed as Homo sapiens) | 45.40% | 41.60% | % of apoptosis, incubation control medium ([1]; oligo 5 microM, no chemotherapeutic compound): 25.84%
CC[C@@]1(O)C(=O)OCc2c1cc1n(c2=O)Cc2cc3c(CN(C)C)c(O)ccc3nc2-1 [Topotecan, topotecan] |  | 36.84% | 
antisense 1: BAG3 antisense phosphorothioate oligodeoxynucleotide TGCATCATGGGCGAGTGGGTGGCGG (antisense TGCATCATGGGCGAGTGGGTGGCGG; DNA, all phosphorothioate, methylation of C not given here; listed as Homo sapiens) |  |  | BAG3 protein in ALL cells (BAG3 protein): downmodulation

Source: US7537760B2, “Monoclonal antibodies recognizing BAG3 protein sequences and their use in diagnostic and therapy of cell death-involving diseases” (priority 2001, dated 2009)
